Reference: PMC12596933 (Chembiochem, 2025)

Legend:
[1] = molecular target: T1, FKP (bacterial L-fucokinase/GDP-fucose pyrophosphorylase) (Bacteroides fragilis, UniProt Q58T34); assay: Enzymatic conversion by FKP into the sugar nucleotide; assay type: biochemical
T1 sequence (Q58T34 1-949): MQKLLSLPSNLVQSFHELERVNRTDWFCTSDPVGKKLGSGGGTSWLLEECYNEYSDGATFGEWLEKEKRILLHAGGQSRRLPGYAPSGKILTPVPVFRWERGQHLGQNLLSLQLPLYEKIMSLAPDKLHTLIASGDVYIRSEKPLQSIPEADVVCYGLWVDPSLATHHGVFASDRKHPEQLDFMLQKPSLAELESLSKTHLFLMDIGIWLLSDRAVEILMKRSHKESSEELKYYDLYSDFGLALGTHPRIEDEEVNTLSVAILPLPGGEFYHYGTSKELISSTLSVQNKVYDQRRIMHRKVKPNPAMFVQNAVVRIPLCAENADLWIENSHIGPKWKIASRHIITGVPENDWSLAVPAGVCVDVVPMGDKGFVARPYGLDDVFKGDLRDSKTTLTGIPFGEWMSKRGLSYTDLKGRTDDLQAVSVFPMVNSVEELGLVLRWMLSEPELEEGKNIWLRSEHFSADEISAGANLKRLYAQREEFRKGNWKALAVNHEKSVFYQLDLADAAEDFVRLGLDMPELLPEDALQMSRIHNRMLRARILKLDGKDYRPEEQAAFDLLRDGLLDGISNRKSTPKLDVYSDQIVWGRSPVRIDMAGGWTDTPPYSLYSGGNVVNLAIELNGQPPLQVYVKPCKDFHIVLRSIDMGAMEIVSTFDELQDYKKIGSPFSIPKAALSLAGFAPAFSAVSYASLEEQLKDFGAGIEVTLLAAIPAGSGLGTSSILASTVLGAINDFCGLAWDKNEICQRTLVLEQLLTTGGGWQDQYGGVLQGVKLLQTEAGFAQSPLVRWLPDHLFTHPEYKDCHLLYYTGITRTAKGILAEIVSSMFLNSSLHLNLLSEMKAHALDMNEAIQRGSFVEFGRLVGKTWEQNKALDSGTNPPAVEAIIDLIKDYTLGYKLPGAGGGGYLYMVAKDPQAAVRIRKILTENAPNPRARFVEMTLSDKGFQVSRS

[2] = system: FUT8; settings: read-out: Km as donor for FUT8; cited from earlier work
[3] = system: FUT6; settings: read-out: Km as donor for FUT6; cited from earlier work
[4] = system: HL-60 cells; assay: Cell surface fucosylation, flow cytometry with lectin AAL staining; assay type: cell-based; settings: 4 to 500 μM, 3 days, normalized to DMSO as 100%

[N-]=[N+]=NC[C@@H]1OC(O)[C@@H](F)[C@H](O)[C@@H]1O (stereo partly shown) [6‐N3‐2‐F‐Fuc]
conversion by FKP into the corresponding sugar nucleotide product [1]: unable to catalyze the conversion

Nc1nc2c(ncn2C2OC(COP(=O)(O)OP(=O)(O)OC3OC(CNC(=O)Cc4ccc5ccccc5c4)C(O)C(O)C3O)C(O)C2O)c(=O)[nH]1 (stereo not shown) [6‐deoxy‐6‐N‐(2‐naphthylacetyl)‐GDP‐fucose]
Km [2]: 175 µM | Km [3]: 0.94 µM

CC(=O)O[C@@H]1O[C@@H](C)[C@@H](OC(C)=O)[C@@H](OC(C)=O)[C@@H]1OC(C)=O [Ac‐fucose]
effect on cell surface fucosylation [4]: enhanced fucosylation
